These results are taken from patent US20060293242A1, “Transporting of taxoid derivatives through the blood brain barrier” (priority 2001, published 2006).

Residues, ends and D or L forms follow the SMILES beside them. *: point of attachment. Paclitaxel(2'-O-succinyl) = CC(=O)O[C@H]1C(=O)[C@@]2(C)[C@H]([C@H](OC(=O)c3ccccc3)[C@]3(O)C[C@H](OC(=O)[C@H](OC(=O)CCC(=O)*)[C@@H](NC(=O)c4ccccc4)c4ccccc4)C(C)=C1C3(C)C)[C@]1(OC(C)=O)CO[C@@H]1C[C@@H]2O

What is called solubility is the concentration that dissolves in the medium under given conditions. Lower therefore signals a poorly soluble substance.

Series [1] concerns MCF-7 (breast cancer) cells. The series is described as follows: Cytotoxicity assay (MTT), MCF-7 cells. To be noted: Homo sapiens, MCF7, MTT test, read-out: IC50 (concentration resulting in 50% inhibition of growth). It counts as cell-based. Here is the method:
(§1) 9 L (glioblastome), MCF-7 and MDA-MB-435 (breast cancer), and SK-N-SH (neuroblastome) cells were obtained commercially from ATCC. The cells are seeded at approximately 10^4 cells per well, 24 h before addition of the products. They are then at 60-80% confluence on the day of the experiment. The cells are maintained in culture at 37° C. in an atmosphere at 95% humidity and 5% CO2 in an OptiMem® medium.
(§2) The cells are incubated either with free Taxol or with the vectorized Taxol at increasing concentrations for 48 hours to 72 hours. At the end of the culturing period, MTT (3-(4,5-dimethylthiazole-2-yl)-2,5-diphenyltetrazolium bromide) is added to the wells and the culture plates are then incubated for 4 hours in an incubator. The resulting crystalline deposit of formazan is then dissolved by addition of 200 μl of DMF/SDS. The optical density (OD) is measured at 550 nm (reference 630 nm) using a microplate reader. […]
(§3) The sensitivity of the 9L, MCF-7, MDA-MB-435 and SK-N-SH cells to free Taxol and to the vectorized Taxol was measured by the MTT test under the experimental conditions defined above for which the relationship between the optical density and the number of viable cells is linear.
(§4) These cells are incubated with increasing concentrations of product and, after […] of incubation, cell survival is measured by the MTT test.
For orientation: Formazan colour is commonly taken as a measure of viable cells.

Series [2] relates to 9 L (glioblastome) cells. The series can be described thus: Cytotoxicity assay (MTT), 9L cells. It counts as cell-based. To be noted: for IC50: 9L cells, MTT test, read-out: IC50 (concentration resulting in 50% inhibition of growth). Here is the method: as §1
The cells are incubated either with free Taxol or with the vectorized Taxol at increasing concentrations for 48 hours to 72 hours. At the end of the culturing period, MTT (3-(4,5-dimethylthiazole-2-yl)-2,5-diphenyltetrazolium bromide) is added to the wells and the culture plates are then incubated for 4 hours in an incubator. The resulting crystalline deposit of formazan is then dissolved by addition of 200 μl of DMF/SDS. The optical density (OD) is measured at 550 nm (reference 630 nm) using a microplate reader.
Graphic representation of the percentages of OD of the treated wells as a function of the concentration of products makes it possible to determine the IC50. This corresponds to the concentration of the product which inhibits 50% of growth.
as §3, §4

Series [3] deals with SK-N-SH (neuroblastome) cells. The series can be described thus: Cytotoxicity assay (MTT), SK-N-SH cells. It counts as cell-based. Conditions: Homo sapiens, MTT test, read-out: IC50 (concentration resulting in 50% inhibition of growth). Here is the method: as §1, §2, §3, §4
Series [4] has as its system MDA-MB-435 (breast cancer) cells. The series is described as follows: Cytotoxicity assay (MTT), MDA-MB-435 cells. The series is classed as cell-based. Conditions: Homo sapiens, MTT test, read-out: IC50 (concentration resulting in 50% inhibition of growth). On the procedure: as §1, §2, §3, §4
Series [5] concerns blood/brain barrier. The series is described as follows: In situ brain perfusion (BBB penetration, Kin). The series is classed as in vivo. To be noted: mouse, in situ brain perfusion for 60 seconds in buffer, 14C-labelled Taxol, FIG. 2. Here is the method:
Mice (20-25 g, Iffa-Credo, Arbresle, France) are anesthetized. After exposure of the common carotid, the right external carotid artery is ligated at the level of the bifurcation with the internal carotid and the common carotid is ligated between the heart and the site of implantation of the catheter (polyethylene catheter, ID: 0.76). This catheter, prefilled with a solution of heparin (100 units/ml), is inserted into the common carotid. The mice are perfused with the perfusion buffer (128 mM NaCl, 24 mM NaHCO3, 4.2 mM KCl, 2.4 mM NaH2PO4, 1.5 mM CaCl2, 0.9 mM MgSO4 and 9 mM D-glucose) This buffer is filtered and then a mixture containing 95% 02/5% CO2 is bubbled in order to maintain the pH close to 7.4 and to provide the brain with oxygen during the perfusion.
The mice are perfused with the buffer containing free Taxol or vectorized Taxol. In each product, the Taxol is radiolabeled with carbon 14 (specific activity: 55 mCi/mmole, Sigma, France). Just before the beginning of perfusion, the heart is stopped by sectioning the ventricles, in order to avoid reflux of the perfusate during perfusion. The right hemisphere is then perfused at a rate of 10 ml/min for 60 seconds, after which the mouse is decapitated. The amount of radioactivity in the right hemisphere is then measured and the brain penetration (Kin) is calculated. […]

The nature of series [6]: physchem.

For the compound `CC(=O)O[C@H]1C(=O)[C@@]2(C)[C@H]([C@H](OC(=O)c3ccccc3)[C@]3(O)C[C@H](OC(=O)[C@H](O)[C@@H](NC(=O)c4ccccc4)c4ccccc4)C(C)=C1C3(C)C)[C@]1(OC(C)=O)CO[C@@H]1C[C@@H]2O` [Free Taxol, paclitaxel], the IC50 was 42 nM in series [1], 3500 nM in series [2], 87 nM in series [3] and 95 nM in series [4].
In the case of `CC(=O)O[C@H]1C(=O)[C@@]2(C)[C@H]([C@H](OC(=O)c3ccccc3)[C@]3(O)C[C@H](OC(=O)[C@H](OC(=O)CCC(=O)N[C@@H](CCCNC(=N)N)C(=O)N[C@@H](CCCNC(=N)N)C(=O)N[C@@H](CC(C)C)C(=O)N[C@@H](CO)C(=O)N[C@@H](Cc4ccc(O)cc4)C(=O)N[C@@H](CO)C(=O)N[C@@H](CCCNC(=N)N)C(=O)N[C@@H](CCCNC(=N)N)C(=O)N[C@@H](CCCNC(=N)N)C(=O)N[C@@H](Cc4ccccc4)C(=O)O)[C@@H](NC(=O)c4ccccc4)c4ccccc4)C(C)=C1C3(C)C)[C@]1(OC(C)=O)CO[C@@H]1C[C@@H]2O` [Taxol-SynB3] ({Paclitaxel(2'-O-succinyl)}-RRLSYSRRRF-OH; N-terminus and C-terminus assumed), the “increase of passage into the brain (Kin) versus free Taxol” value in series [5] is on record as “approximately 12 fold”. The “times more active than the free Taxol” value in series [2] (9 L cell line, ratio of IC50) is “approximately 5 times”. In series [2], the IC50 is 600 nM. In series [6], this compound gave a solubility above 10000 µg/mL.
